Source: PubChem BioAssay AID330 (DTP/NCI, 2004)
Several values for one entry are separate records, joined by “and”; a condition that tells them apart may be missing. Identical values can stand only once. Toxic doses and inconclusive results are not listed. Rule for the calls: active = survival T/C of 150% or more; inactive = T/C below 125% in these data.

System: P388 leukemia ip, CD2F1 mice, survival T/C
Assay: NCI In Vivo Anticancer Drug Screen. Data for tumor model P388 Leukemia (intraperitoneal) in CD2F1 (CDF1) mice
Settings: endpoint: median survival time, higher = longer survival
In short: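 Mice carrying the transplanted tumor received test compound or vehicle. Survival was recorded in each group, and the value is the treated-group measurement divided by that of the vehicle-treated control group.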

[1] = dose: 50.0 mg/kg/injection, schedule: Q01DX001 (ip), vehicle: Klucel (hydroxypropylcellulose) (HPC)
[2] = dose: 100.0 mg/kg/injection, schedule: Q01DX001 (ip), vehicle: Klucel (hydroxypropylcellulose) (HPC)
[3] = dose: 50.0 mg/kg/injection, schedule: Q01DX005 (ip), vehicle: Klucel (hydroxypropylcellulose) (HPC)
[4] = dose: 100.0 mg/kg/injection, schedule: Q01DX005 (ip), vehicle: Klucel (hydroxypropylcellulose) (HPC)
[5] = dose: 200.0 mg/kg/injection, schedule: Q01DX005 (ip), vehicle: Klucel (hydroxypropylcellulose) (HPC)
[6] = dose: 12.5 mg/kg/injection, schedule: Q01DX009 (ip), vehicle: saline with Tween-80
[7] = dose: 25.0 mg/kg/injection, schedule: Q01DX009 (ip), vehicle: saline with Tween-80
[8] = dose: 25.0 mg/kg/injection, schedule: Q01DX005 (ip), vehicle: saline with Tween-80
[9] = dose: 50.0 mg/kg/injection, schedule: Q01DX005 (ip), vehicle: saline with Tween-80
[10] = dose: 100.0 mg/kg/injection, schedule: Q01DX005 (ip), vehicle: saline with Tween-80
[11] = dose: 200.0 mg/kg/injection, schedule: Q01DX005 (ip), vehicle: saline with Tween-80

Measured: T/C

Nc1ccc(C(=O)Oc2ccc(OC(=O)c3ccc(N)cc3)cc2)cc1
inactive: dose: 25.0 mg/kg/injection, schedule: Q01DX001 (ip), vehicle: Klucel (hydroxypropylcellulose) (HPC) 99 % of control | [1] 96 % of control | [2] 101 % of control

CNC1CCc2cc(OC)ccc21 (stereo unspecified)
inactive: [1] 107 % of control | [2] 102 % of control

c1ccc(-c2c3ccccc3c[n+]3ccccc23)cc1
inactive: dose: 3.13 mg/kg/injection, schedule: Q01DX009 (ip), vehicle: Klucel (hydroxypropylcellulose) (HPC) 106 % of control | dose: 6.25 mg/kg/injection, schedule: Q01DX009 (ip), vehicle: Klucel (hydroxypropylcellulose) (HPC) 92 % of control

CS(=O)(=O)OCCOc1ccc(-c2nc3ccccc3[nH]2)cc1
inactive: dose: 100.0 mg/kg/injection, schedule: Q01DX001 (ip), vehicle: saline with Tween-80 90 % of control | dose: 200.0 mg/kg/injection, schedule: Q01DX001 (ip), vehicle: saline with Tween-80 98 % of control | dose: 400.0 mg/kg/injection, schedule: Q01DX001 (ip), vehicle: saline with Tween-80 99 % of control

Cn1c(=O)c2c(c3cc(O)ccc31)OC(C(C)(C)O)C2 (stereo unspecified)
inactive: [3] 95 % of control | [4] 96 % of control | [5] 86 % of control

CC1OC(CC(=O)O)Cc2c1c(O)c1c(O)cc(-c3cc(=O)c4c(=O)c5c(c(=O)c=4c3=O)CC(CC(=O)O)OC5C)c(O)c1c2O (stereo unspecified)
inactive: dose: 6.25 mg/kg/injection, schedule: Q01DX009 (ip), vehicle: saline with Tween-80 100 % of control | [6] 102 % of control | [7] 103 % of control

COc1ccc(C2=Nn3c(nc(N)nc3=N)SC2)cc1
inactive: [8] 113 % of control | [9] 100 % of control | [10] 96 % of control

O=c1cc(-c2ccc(OCc3ccccc3)cc2)oc2c(-c3c(OCc4ccccc4)cc(OCc4ccccc4)c4c(=O)cc(-c5ccc(OCc6ccccc6)cc5)oc34)c(OCc3ccccc3)cc(OCc3ccccc3)c12
inactive: [2] 95 % of control | dose: 200.0 mg/kg/injection, schedule: Q01DX001 (ip), vehicle: Klucel (hydroxypropylcellulose) (HPC) 92 % of control | dose: 400.0 mg/kg/injection, schedule: Q01DX001 (ip), vehicle: Klucel (hydroxypropylcellulose) (HPC) 103 % of control

Clc1cc(Cl)c(C[N+]23CN4CN(CN(C4)C2)C3)cc1Cl
inactive: dose: 6.25 mg/kg/injection, schedule: Q01DX009 (ip), vehicle: saline 102 % of control | dose: 12.5 mg/kg/injection, schedule: Q01DX009 (ip), vehicle: saline 100 % of control and 107 % of control | dose: 25.0 mg/kg/injection, schedule: Q01DX009 (ip), vehicle: saline 106 % of control and 109 % of control | dose: 50.0 mg/kg/injection, schedule: Q01DX009 (ip), vehicle: saline with Tween-80 122 % of control | dose: 50.0 mg/kg/injection, schedule: Q01DX009 (ip), vehicle: saline 111 % of control and 120 % of control | dose: 100.0 mg/kg/injection, schedule: Q01DX009 (ip), vehicle: saline 117 % of control

COc1ccc(Nc2nc3c(s2)c(C)c(O)c2ccccc23)cc1
inactive: dose: 60.0 mg/kg/injection, schedule: Q01DX005 (ip), vehicle: saline with Tween-80 95 % of control | dose: 120.0 mg/kg/injection, schedule: Q01DX005 (ip), vehicle: saline with Tween-80 103 % of control | dose: 240.0 mg/kg/injection, schedule: Q01DX005 (ip), vehicle: saline with Tween-80 112 % of control

CN(C)CCCNc1cccc2c1C(=O)c1c(NCCCN(C)C)cccc1C2=O
inactive: dose: 3.75 mg/kg/injection, schedule: Q01DX009 (ip), vehicle: saline 99 % of control | dose: 7.5 mg/kg/injection, schedule: Q01DX009 (ip), vehicle: saline 105 % of control | dose: 12.5 mg/kg/injection, schedule: Q01DX009 (ip), vehicle: water 98 % of control | dose: 15.0 mg/kg/injection, schedule: Q01DX009 (ip), vehicle: saline 106 % of control | dose: 25.0 mg/kg/injection, schedule: Q01DX009 (ip), vehicle: water 95 % of control | dose: 30.0 mg/kg/injection, schedule: Q01DX009 (ip), vehicle: saline 96 % of control | dose: 60.0 mg/kg/injection, schedule: Q01DX009 (ip), vehicle: saline 90 % of control

Cc1ccc(N)c(C(=O)Nc2ccc(Br)cc2)c1
inactive: [9] 101 % of control | [10] 101 % of control | [11] 95 % of control

C/C1=C/CCC(C)c2cc(OC(=O)c3ccccc3)c(C)cc2C1 (stereo unspecified)
inactive: dose: 25.0 mg/kg/injection, schedule: Q01DX005 (ip), vehicle: Klucel (hydroxypropylcellulose) (HPC) 104 % of control | [3] 99 % of control | dose: 70.0 mg/kg/injection, schedule: Q01DX005 (ip), vehicle: Klucel (hydroxypropylcellulose) (HPC) 90 % of control | [4] 107 % of control | dose: 140.0 mg/kg/injection, schedule: Q01DX005 (ip), vehicle: Klucel (hydroxypropylcellulose) (HPC) 95 % of control | [5] 95 % of control | dose: 280.0 mg/kg/injection, schedule: Q01DX005 (ip), vehicle: Klucel (hydroxypropylcellulose) (HPC) 90 % of control | dose: 560.0 mg/kg/injection, schedule: Q01DX005 (ip), vehicle: Klucel (hydroxypropylcellulose) (HPC) 90 % of control

CC(=O)OCC1OC(Oc2ccc(C=C(C(C)=O)C(C)=O)cc2)C(OC(C)=O)C(OC(C)=O)C1OC(C)=O (stereo unspecified)
inactive: [9] 105 % of control | [10] 101 % of control | [11] 104 % of control

Cc1[nH]nc2oc(=O)c3ccccc3c12
inactive: [3] 105 % of control | [4] 102 % of control | [5] 102 % of control

CCOC(=O)C(Cl)c1ccc(OC)cc1 (stereo unspecified)
inactive: dose: 100.0 mg/kg/injection, schedule: Q04DX003 (ip), vehicle: other 104 % of control | dose: 200.0 mg/kg/injection, schedule: Q04DX003 (ip), vehicle: other 90 % of control | dose: 400.0 mg/kg/injection, schedule: Q04DX003 (ip), vehicle: other 104 % of control

Cc1cccc(-n2c(-c3ccc(Cl)cc3)cs/c2=N\Nc2nnc(-c3ccccc3)c(-c3ccccc3)n2)c1
inactive: dose: 100.0 mg/kg/injection, schedule: Q04DX002 (ip), vehicle: saline with Tween-80 88 % of control | dose: 200.0 mg/kg/injection, schedule: Q04DX002 (ip), vehicle: saline with Tween-80 87 % of control | dose: 400.0 mg/kg/injection, schedule: Q04DX002 (ip), vehicle: saline with Tween-80 89 % of control

CC1=C(OS(C)(=O)=O)CCC1=O
inactive: dose: 12.5 mg/kg/injection, schedule: Q01DX005 (ip), vehicle: saline with Tween-80 104 % of control | [8] 103 % of control | [9] 103 % of control and 107 % of control | [10] 106 % of control

CC(=O)NC1C(=O)CC(c2ccccc2)N(C)C1c1ccccc1 (stereo unspecified)
inactive: [3] 101 % of control | [4] 97 % of control | [5] 90 % of control

Cn1c2ccccc2c2oc(-c3nn[nH]n3)cc(=O)c21
inactive: dose: 60.0 mg/kg/injection, schedule: Q01DX005 (ip), vehicle: Klucel (hydroxypropylcellulose) (HPC) 97 % of control | dose: 120.0 mg/kg/injection, schedule: Q01DX005 (ip), vehicle: Klucel (hydroxypropylcellulose) (HPC) 105 % of control | dose: 240.0 mg/kg/injection, schedule: Q01DX005 (ip), vehicle: Klucel (hydroxypropylcellulose) (HPC) 100 % of control

Nc1nnc2nc(CC(=O)c3ccccc3)c(=O)[nH]n12
inactive: dose: 60.0 mg/kg/injection, schedule: Q01DX005 (ip), vehicle: saline 96 % of control | dose: 120.0 mg/kg/injection, schedule: Q01DX005 (ip), vehicle: saline 100 % of control | dose: 240.0 mg/kg/injection, schedule: Q01DX005 (ip), vehicle: saline 100 % of control

CCCCCCC(Nc1ncnc(Cl)c1N)C(C)O (stereo unspecified)
inactive: [6] 97 % of control | [7] 100 % of control
